Experimental data as given in patent US8247377B2, “Non-steroidal glucocorticoid inhibitors and their use in treating inflammation, allergy and auto-immune conditions” (Glaxo Group Limited, priority 2006, dated 2012).

Legend:
Type in all cases: cell-based
NFκB = NFκB agonist assay in A549 SPAP cells; details: Homo sapiens; for Emax: A549, A549 SPAP cells, >85% = full agonist, ≧20% = partial or full agonist, read-out: average maximum asymptote in the NFkB assay; for IC50: A549 SPAP cells, TNFα 3.2 ng/ml, read-out: pIC50 for the NFkB assay (converted);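 as to average maximum asymptote in the NFkB assay: maximum inhibition of the TNFα-induced NFκB-driven signal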
How it was run: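 A549 cells stably carrying an ELAM/NFκB-driven SPAP reporter were pre-incubated 1 h at 37° C with compound, then stimulated with TNFα (3.2 ng/ml final) for 15 h. SPAP activity read colorimetrically with pNPP at 405 nm after ~1 h; pIC50 estimated from dose-response curves.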

MMTV promoter = test: MMTV agonist assay in A549 MMTV cells; details: Homo sapiens, A549, 6 h, >85% = full agonist, >20% and <85% = partial or efficacy selective agonist, read-out: average maximum asymptote in the MMTV agonist assay
How it was run: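 A549 cells stably carrying an MMTV promoter-driven renilla luciferase reporter were exposed to compound for 6 h at 37 °C in DMEM with 10% FCS and 25 mM HEPES. Luminescence read after renilla substrate addition; pEC50 and maximum asymptote estimated from dose-response curves.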

progesterone receptor = molecular target: T1, progesterone receptor (Homo sapiens, UniProt P06401); test: Assay for progesterone receptor activity (CV-1 cells, PRb-BacMam/MMTV-BacMam); details: CV-1 cells transduced with PRb-BacMam and MMTV-BacMam; read-out: pEC50 progesterone receptor activity (converted)
T1 construct: expressed in transfected cells; host or cells: CV-1 cells transduced with PRb-BacMam and MMTV-BacMam
T1 sequence (P06401 1-933): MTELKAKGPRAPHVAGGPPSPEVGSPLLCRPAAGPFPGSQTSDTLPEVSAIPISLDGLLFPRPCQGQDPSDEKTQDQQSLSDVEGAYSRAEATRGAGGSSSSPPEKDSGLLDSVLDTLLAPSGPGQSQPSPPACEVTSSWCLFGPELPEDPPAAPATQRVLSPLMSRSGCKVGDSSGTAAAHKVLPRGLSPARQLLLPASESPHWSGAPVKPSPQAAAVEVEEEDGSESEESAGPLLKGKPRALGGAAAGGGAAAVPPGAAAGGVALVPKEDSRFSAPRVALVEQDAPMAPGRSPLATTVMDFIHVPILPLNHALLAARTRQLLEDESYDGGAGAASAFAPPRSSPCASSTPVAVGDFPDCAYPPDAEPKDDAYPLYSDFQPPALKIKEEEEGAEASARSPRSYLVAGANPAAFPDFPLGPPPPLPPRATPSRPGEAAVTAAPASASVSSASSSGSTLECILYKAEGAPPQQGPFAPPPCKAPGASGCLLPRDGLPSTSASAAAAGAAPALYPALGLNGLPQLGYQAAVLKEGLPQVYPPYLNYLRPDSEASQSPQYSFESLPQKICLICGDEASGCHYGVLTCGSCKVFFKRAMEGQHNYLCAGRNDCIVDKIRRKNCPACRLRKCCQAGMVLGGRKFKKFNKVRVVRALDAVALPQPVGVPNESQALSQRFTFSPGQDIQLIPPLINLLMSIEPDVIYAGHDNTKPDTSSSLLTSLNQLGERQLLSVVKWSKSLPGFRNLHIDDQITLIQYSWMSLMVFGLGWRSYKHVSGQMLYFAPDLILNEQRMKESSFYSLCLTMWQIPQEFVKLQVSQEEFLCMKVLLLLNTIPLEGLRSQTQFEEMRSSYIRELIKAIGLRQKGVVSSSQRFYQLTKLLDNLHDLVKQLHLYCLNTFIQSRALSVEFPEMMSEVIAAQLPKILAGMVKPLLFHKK
How it was run: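 CV-1 cells co-transduced with PRb-BacMam and MMTV-BacMam (10% each), seeded onto compounds in DMEM with 10% serum. After 24 h, luminescence was read with Steadylite. pEC50 values were estimated from dose-response curves.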

Structure (SMILES) | Emax (NFκB) [%] | IC50 (NFκB) [nM] | Emax (MMTV promoter) [%] | EC50 (progesterone receptor) [nM]
CCN(CC(O)(CNC(=O)c1cnn(-c2ccc(F)cc2F)c1N)C(F)(F)F)C(=O)c1c(F)cccc1F (racemic) [Example 34 (racemic), 5-amino-1-(2,4-difluorophenyl)-N-(2-{[[(2,6-difluorophenyl)carbonyl](ethyl)amino]methyl}-3,3,3-trifluoro-2-hydroxypropyl)-1H-pyrazole-4-carboxamide] | > 85 | < 1000 | > 85 | > 1000
CCN(CC(O)(CNC(=O)c1cnn(-c2cc(F)cc(F)c2)c1N)C(F)(F)F)C(=O)c1c(F)cccc1F (racemic) [Example 35 (racemic), 5-amino-1-(3,5-difluorophenyl)-N-(2-{[[(2,6-difluorophenyl)carbonyl](ethyl)amino]methyl}-3,3,3-trifluoro-2-hydroxypropyl)-1H-pyrazole-4-carboxamide] | > 85 | < 1000 | > 85 | > 1000
CCN(CC(O)(CNC(=O)c1cnn(-c2cc(F)ccc2F)c1N)C(F)(F)F)C(=O)c1c(F)cccc1F (racemic) [Example 36 (racemic), 5-amino-1-(2,5-difluorophenyl)-N-(2-{[[(2,6-difluorophenyl)carbonyl](ethyl)amino]methyl}-3,3,3-trifluoro-2-hydroxypropyl)-1H-pyrazole-4-carboxamide] | > 85 | < 1000 | > 85 | > 1000
CCN(CC(O)(CNC(=O)c1cnn(-c2c(F)cccc2F)c1N)C(F)(F)F)C(=O)c1c(F)cccc1F (racemic) [Example 37 (racemic), 5-amino-1-(2,6-difluorophenyl)-N-(2-{[[(2,6-difluorophenyl)carbonyl](ethyl)amino]methyl}-3,3,3-trifluoro-2-hydroxypropyl)-1H-pyrazole-4-carboxamide] | > 85 | < 1000 | > 85 | > 1000
CCN(CC(O)(CNC(=O)c1cnn(-c2cccc(F)c2)c1N)C(F)(F)F)C(=O)c1c(F)cccc1F (racemic) [Example 38 (racemic), 5-amino-N-(2-{[[(2,6-difluorophenyl)carbonyl](ethyl)amino]methyl}-3,3,3-trifluoro-2-hydroxypropyl)-1-(3-fluorophenyl)-1H-pyrazole-4-carboxamide] | > 85 | < 1000 | > 85 | > 1000
CCN(CC(O)(CNC(=O)c1cnn(-c2ccc(Cl)cc2)c1N)C(F)(F)F)C(=O)c1c(F)cccc1F (racemic) [Example 39 (racemic), 5-amino-1-(4-chlorophenyl)-N-(2-{[[(2,6-difluorophenyl)carbonyl](ethyl)amino]methyl}-3,3,3-trifluoro-2-hydroxypropyl)-1H-pyrazole-4-carboxamide] | > 85 | < 1000 | > 85 | > 1000
CCN(CC(O)(CNC(=O)c1cnn(-c2cccc(Cl)c2)c1N)C(F)(F)F)C(=O)c1c(F)cccc1F (racemic) [Example 41 (racemic), 5-amino-1-(3-chlorophenyl)-N-(2-{[[(2,6-difluorophenyl)carbonyl](ethyl)amino]methyl}-3,3,3-trifluoro-2-hydroxypropyl)-1H-pyrazole-4-carboxamide] | > 85 | < 1000 | > 85 | > 1000
CCN(CC(O)(CNC(=O)c1cnn(-c2ccccc2F)c1N)C(F)(F)F)C(=O)c1c(F)cccc1F (racemic) [Example 42 (racemic), 5-amino-N-(2-{[[(2,6-difluorophenyl)carbonyl](ethyl)amino]methyl}-3,3,3-trifluoro-2-hydroxypropyl)-1-(2-fluorophenyl)-1H-pyrazole-4-carboxamide] | > 85 | < 1000 | > 85 | > 1000
Nc1c(C(=O)NCC(O)(CNC(=O)c2c(C(F)F)cccc2C(F)F)C(F)(F)F)cnn1-c1ccc(F)cc1 (racemic) [Example 43 (racemic), 5-Amino-N-{2-[({[2,6-bis(difluoromethyl)phenyl]carbonyl}amino)methyl]-3,3,3-trifluoro-2-hydroxypropyl}-1-(4-fluorophenyl)-1H-pyrazole-4-carboxamide] | ≥ 20 | < 1000 | 20 to 85 | > 1000
Nc1c(C(=O)NCC(O)(CNC(=O)c2c(Br)cccc2C(F)(F)F)C(F)(F)F)cnn1-c1ccc(F)cc1 (racemic) [Example 45 (racemic), 5-Amino-N-{2-[({[2-bromo-6-(trifluoromethyl)phenyl]carbonyl}amino)methyl]-3,3,3-trifluoro-2-hydroxypropyl}-1-(4-fluorophenyl)-1H-pyrazole-4-carboxamide] | ≥ 20 | < 1000 | 20 to 85 | > 1000
Nc1c(C(=O)NCC(O)(CNC(=O)c2c(Cl)cccc2Cl)C(F)(F)F)cnn1-c1ccc(F)cc1 (single isomer, unassigned) [Example 3 Enantiomer 1, 5-Amino-N-[2-({[(2,6-dichlorophenyl)carbonyl]amino}methyl)-3,3,3-trifluoro-2-hydroxypropyl]-1-(4-fluorophenyl)-1H-pyrazole-4-carboxamide] | ≥ 20 | < 1000 | 20 to 85 | > 1000
CCN(CC(O)(CNC(=O)c1cnn(-c2ccc(F)cc2)c1N)C(F)(F)F)C(=O)c1ccccc1S(C)(=O)=O (single isomer, unassigned) [Example 10 Enantiomer 1, 5-Amino-N-{2-[(ethyl{[2-(methylsulfonyl)phenyl]carbonyl}amino)methyl]-3,3,3-trifluoro-2-hydroxypropyl}-1-(4-fluorophenyl)-1H-pyrazole-4-carboxamide] | > 85 | < 1000 | > 85 | > 1000
Nc1c(C(=O)NCC(O)(CNC(=O)c2c(Br)cccc2Br)C(F)(F)F)cnn1-c1ccc(F)cc1 (single isomer, unassigned) [Example 11 Enantiomer 1, 5-Amino-N-[2-({[(2,6-dibromophenyl)carbonyl]amino}methyl)-3,3,3-trifluoro-2-hydroxypropyl]-1-(4-fluorophenyl)-1H-pyrazole-4-carboxamide] | ≥ 20 | < 1000 | 20 to 85 | > 1000
Nc1c(C(=O)NCC(O)(CNC(=O)c2c(Cl)cccc2Br)C(F)(F)F)cnn1-c1ccc(F)cc1 (single isomer, unassigned) [Example 12 Enantiomer 1, 5-Amino-N-[2-({[(2-bromo-6-chlorophenyl)carbonyl]amino}methyl)-3,3,3-trifluoro-2-hydroxypropyl]-1-(4-fluorophenyl)-1H-pyrazole-4-carboxamide] | ≥ 20 | < 1000 | 20 to 85 | > 1000
Nc1c(C(=O)NCC(O)(CNC(=O)c2c(F)cccc2Br)C(F)(F)F)cnn1-c1ccc(F)cc1 (single isomer, unassigned) [Example 13 Enantiomer 1, 5-Amino-N-[2-({[(2-bromo-6-fluorophenyl)carbonyl]amino}methyl)-3,3,3-trifluoro-2-hydroxypropyl]-1-(4-fluorophenyl)-1H-pyrazole-4-carboxamide] | ≥ 20 | < 1000 | 20 to 85 | > 1000
Nc1c(C(=O)NCC(O)(CNC(=O)c2c(Cl)cccc2OC(F)F)C(F)(F)F)cnn1-c1ccc(F)cc1 (single isomer, unassigned) [Example 14 Enantiomer 1, 5-Amino-N-(2-{[({2-chloro-6-[(difluoromethyl)oxy]phenyl}carbonyl)amino]methyl}-3,3,3-trifluoro-2-hydroxypropyl)-1-(4-fluorophenyl)-1H-pyrazole-4-carboxamide] | ≥ 20 | < 1000 | 20 to 85 | > 1000
